From patent US8420595B2, “Methods for treating acute acoustic trauma” (Oklahoma Medical Research Foundation, priority 2006, dated 2013)

Tested on: AAT-induced hearing loss (six hours of 4 kHz octave band noise at 105 dB SPL)
Test: Acute acoustic trauma (AAT) in chinchillas, hearing levels by auditory brainstem response (ABR)
Format: in vivo, chinchilla
Details: every tested frequency
Method: With reference first to Tables 1-A, 1-B and 1-C, tests were conducted using six chinchillas for each experimental group and the control group. In these tests, the animals were exposed to AAT generated by six hours of noise exposure at 4 kHz octave band noise at 105 dB SPL. Treatments using 4-OHPBN (dosages of 10, 20, 50, and 75 mg/kg), ALCAR (dosages of 0, 20, 30, and 50 mg/kg), and NAC (50, 100, and 200 mg/kg) were given four hours after the AAT by intraperitoneal injection. Hearing levels were determined by auditory brainstem response (ABR) prior to the AAT event (baseline) and at 21 days post injection.
Table 3 depicts the results provided by treatment with a preferred embodiment of the current invention. In this embodiment, the AAT treatment therapy utilized a combination of 4-OHPBN (50 mg/kg) with NAC (100 mg/kg). Treatment consisted of intraperitoneal injection of the combined 4-OHPBN and NAC four hours after the AAT event. In this instance, six chinchillas were used for each test group. The animals were exposed to an AAT event produced by six hours of noise exposure at 4 kHz octave band noise at 105 dB SPL. Hearing levels reported in Table 3 were determined using the ABR method prior to the AAT event and 21 days post AAT. […] As indicated by the * each result was determined to be statistically significant and resulting from the treatment with the combination of 4-OHPBN and NAC. Statistical analysis was carried out using a one way ANOVA procedure and Post hoc test. While the above tests were conducted at the specified dosages, effective results should be realized at dosages between about 5 mg/kg and about 300 mg/kg for NAC and about 5 mg/kg and about 150 mg/kg for 4-OHPBN when NAC and 4-OHPBN are used in combination.
Table 4 depicts the results provided by treatment with another preferred embodiment of the current invention. The test for this embodiment utilized three test groups consisting of six chinchillas each. The chinchillas were exposed to an AAT event generated by a 105 dB narrow-band noise centered at 4 kHz for 6 hours. In this embodiment, the AAT treatment therapy utilized a combination of 4-OHPBN (20 mg/kg) with NAC (50 mg/kg) and ALCAR (20 mg/kg). Treatment consisted of intraperitoneal injection of the combined 4-OHPBN, NAC and ALCAR beginning four hours after noise exposure with injections repeated twice daily for the next two days. The control group was injected with carrier solution. Hearing levels reported in Table 4 were determined using the ABR method prior to the AAT event, immediately after the AAT event and 21 days after the AAT event.
Mean ABR threshold shifts were obtained and statistically analyzed using a two-way ANOVA procedure.

| SMILES | p (two way ANOVA and Post hoc test) vs control, ABR hearing level (ALCAR 30 mg/kg i.p. four hours after AAT) | p (two way ANOVA and Post hoc test) vs control, ABR hearing level (ALCAR 50 mg/kg i.p. four hours after AAT) | p (two way ANOVA and Post hoc test) vs control, ABR hearing level (NAC 100 mg/kg i.p. four hours after AAT) | p (two way ANOVA and Post hoc test) vs control, ABR hearing level (NAC 200 mg/kg i.p. four hours after AAT) |
| --- | --- | --- | --- | --- |
| CC(=O)O[C@H](CC(=O)[O-])C[N+](C)(C)C [ALCAR, Acetyl-L-Carnitine] | < 0.05 | < 0.05 |  |  |
| CC(=O)N[C@@H](CS)C(=O)O [NAC, N-acetylcysteine] |  |  | < 0.05 | < 0.05 |
